Measured values reported in PubChem BioAssay AID226 (DTP/NCI, 2004).
Where “and” joins values, the source holds several entries; their conditions need not be identical. Identical values can stand only once. Toxic doses and inconclusive results are not listed.

Test system: B6C3F1 mice, intracerebral ependymoblastoma, median survival T/C
Assay: NCI In Vivo Anticancer Drug Screen. Data for tumor model Ependymoblastoma (intracerebral) in B6C3F1 mice
Settings: endpoint: median survival time, higher = longer survival
Procedure: The antitumor activity of compounds was measured in mice bearing transplantable tumors. Survival or tumor size were measured and the results are expressed as the measurement made in the treated group (T) divided by the measurement made in the vehicle treated control group (C). The tumor model used in this assay is Ependymoblastoma (intracerebral) in B6C3F1 mice

[1] = dose: 16.0 mg/kg/injection, schedule: Q01DX005 (ip), vehicle: saline
[2] = dose: 25.0 mg/kg/injection, schedule: Q01DX005 (ip), vehicle: saline
[3] = dose: 8.0 mg/kg/injection, schedule: Q01DX005 (ip), vehicle: Klucel (hydroxypropylcellulose) (HPC)
[4] = dose: 16.0 mg/kg/injection, schedule: Q01DX005 (ip), vehicle: Klucel (hydroxypropylcellulose) (HPC)
[5] = dose: 32.0 mg/kg/injection, schedule: Q01DX005 (ip), vehicle: Klucel (hydroxypropylcellulose) (HPC)
[6] = dose: 64.0 mg/kg/injection, schedule: Q01DX005 (ip), vehicle: Klucel (hydroxypropylcellulose) (HPC)
[7] = dose: 128.0 mg/kg/injection, schedule: Q01DX005 (ip), vehicle: Klucel (hydroxypropylcellulose) (HPC)
[8] = dose: 256.0 mg/kg/injection, schedule: Q01DX005 (ip), vehicle: Klucel (hydroxypropylcellulose) (HPC)
[9] = dose: 512.0 mg/kg/injection, schedule: Q01DX005 (ip), vehicle: Klucel (hydroxypropylcellulose) (HPC)

CC(=O)OCC1C(=O)OCC1C(=O)N1Cc2cc3ccccc3nc2C1 (stereo unspecified)
T/C (dose: 4.0 mg/kg/injection, schedule: Q01DX005 (ip), vehicle: saline with Tween-80): 99 % of control
T/C (dose: 8.0 mg/kg/injection, schedule: Q01DX005 (ip), vehicle: saline with Tween-80): 103 % of control and 104 % of control
T/C (dose: 16.0 mg/kg/injection, schedule: Q01DX005 (ip), vehicle: saline with Tween-80): 104 % of control
T/C (dose: 32.0 mg/kg/injection, schedule: Q01DX005 (ip), vehicle: saline with Tween-80): 104 % of control
T/C (dose: 64.0 mg/kg/injection, schedule: Q01DX005 (ip), vehicle: saline with Tween-80): 90 % of control and 101 % of control
T/C (dose: 128.0 mg/kg/injection, schedule: Q01DX005 (ip), vehicle: saline with Tween-80): 90 % of control

CC1CN1C(=O)NCCCCCCNC(=O)N1CC1C (stereo unspecified)
T/C (dose: 1.25 mg/kg/injection, schedule: Q01DX005 (ip), vehicle: Klucel (hydroxypropylcellulose) (HPC)): 105 % of control
T/C (dose: 2.5 mg/kg/injection, schedule: Q01DX005 (ip), vehicle: Klucel (hydroxypropylcellulose) (HPC)): 108 % of control
T/C (dose: 5.0 mg/kg/injection, schedule: Q01DX005 (ip), vehicle: Klucel (hydroxypropylcellulose) (HPC)): 120 % of control
T/C (dose: 10.0 mg/kg/injection, schedule: Q01DX005 (ip), vehicle: Klucel (hydroxypropylcellulose) (HPC)): 109 % of control

CC(=O)OCC1OC(n2ccc(N)nc2=O)C(OC(C)=O)C1OC(C)=O (stereo unspecified)
T/C (dose: 50.0 mg/kg/injection, schedule: Q01DX005 (ip), vehicle: Klucel (hydroxypropylcellulose) (HPC)): 98 % of control
T/C (dose: 100.0 mg/kg/injection, schedule: Q01DX005 (ip), vehicle: Klucel (hydroxypropylcellulose) (HPC)): 102 % of control
T/C (dose: 200.0 mg/kg/injection, schedule: Q01DX005 (ip), vehicle: Klucel (hydroxypropylcellulose) (HPC)): 117 % of control

F
T/C [1]: 112 % of control
T/C (dose: 32.0 mg/kg/injection, schedule: Q01DX005 (ip), vehicle: saline): 107 % of control
T/C (dose: 64.0 mg/kg/injection, schedule: Q01DX005 (ip), vehicle: saline): 105 % of control

O=P1(N(CCCl)CCCl)NCCCO1 (stereo unspecified)
T/C (dose: 40.0 mg/kg/injection, schedule: Q01DX001 (ip), vehicle: saline): 109 % of control
T/C (dose: 320.0 mg/kg/injection, schedule: Q01DX001 (ip), vehicle: saline): 163 % of control

C(COCCOCC1CO1)OCCOCC1CO1 (stereo unspecified)
T/C [2]: 100 % of control and 118 % of control
T/C (dose: 50.0 mg/kg/injection, schedule: Q01DX005 (ip), vehicle: saline): 97 % of control and 121 % of control
T/C (dose: 100.0 mg/kg/injection, schedule: Q01DX005 (ip), vehicle: saline): 97 % of control and 100 % of control
T/C (dose: 200.0 mg/kg/injection, schedule: Q01DX005 (ip), vehicle: saline): 105 % of control

N=c1ccn2c(n1)OC1C(O)C(CO)OC12 (stereo unspecified)
T/C (dose: 37.5 mg/kg/injection, schedule: Q01DX005 (ip), vehicle: saline): 118 % of control
T/C (dose: 75.0 mg/kg/injection, schedule: Q01DX005 (ip), vehicle: saline): 104 % of control
T/C (dose: 100.0 mg/kg/injection, schedule: Q01DX001 (ip), vehicle: saline): 92 % of control and 94 % of control and 109 % of control
T/C (dose: 150.0 mg/kg/injection, schedule: Q01DX005 (ip), vehicle: saline): 115 % of control
T/C (dose: 200.0 mg/kg/injection, schedule: Q01DX001 (ip), vehicle: saline): 100 % of control (2×) and 101 % of control
T/C (dose: 400.0 mg/kg/injection, schedule: Q01DX001 (ip), vehicle: saline): 95 % of control and 98 % of control and 112 % of control
T/C (dose: 800.0 mg/kg/injection, schedule: Q01DX001 (ip), vehicle: saline): 106 % of control and 112 % of control and 123 % of control
T/C (dose: 1600.0 mg/kg/injection, schedule: Q01DX001 (ip), vehicle: saline): 99 % of control and 105 % of control and 115 % of control

CC(=O)OC1COC(NC(=O)N(CCCl)N=O)C(OC(C)=O)C1OC(C)=O (stereo unspecified)
T/C (dose: 0.18 mg/kg/injection, schedule: Q01DX009 (ip), vehicle: saline with Tween-80): 103 % of control
T/C (dose: 0.38 mg/kg/injection, schedule: Q01DX009 (ip), vehicle: saline with Tween-80): 117 % of control
T/C (dose: 0.75 mg/kg/injection, schedule: Q01DX005 (ip), vehicle: saline with Tween-80): 113 % of control
T/C (dose: 1.5 mg/kg/injection, schedule: Q01DX005 (ip), vehicle: saline with Tween-80): 96 % of control and 121 % of control
T/C (dose: 3.0 mg/kg/injection, schedule: Q01DX005 (ip), vehicle: saline with Tween-80): 91 % of control
T/C (dose: 3.0 mg/kg/injection, schedule: Q01DX009 (ip), vehicle: saline with Tween-80): 178 % of control
T/C (dose: 6.0 mg/kg/injection, schedule: Q01DX005 (ip), vehicle: saline with Tween-80): 107 % of control
T/C (dose: 6.0 mg/kg/injection, schedule: Q01DX009 (ip), vehicle: saline with Tween-80): 165 % of control
T/C (dose: 12.0 mg/kg/injection, schedule: Q01DX005 (ip), vehicle: saline with Tween-80): 158 % of control

CN(Cc1cnc2nc(N)nc(N)c2n1)c1ccc(C(=O)N[C@@H](CCC(=O)O)C(=O)O)cc1
T/C (dose: 4.0 mg/kg/injection, schedule: Q01DX009 (ip), vehicle: saline with Tween-80): 118 % of control
T/C (dose: 4.0 mg/kg/injection, schedule: Q04DX003 (ip), vehicle: saline with Tween-80): 118 % of control
T/C (dose: 8.0 mg/kg/injection, schedule: Q01DX009 (ip), vehicle: saline with Tween-80): 106 % of control
T/C (dose: 8.0 mg/kg/injection, schedule: Q04DX003 (ip), vehicle: saline with Tween-80): 110 % of control
T/C (dose: 16.0 mg/kg/injection, schedule: Q01DX009 (ip), vehicle: saline with Tween-80): 111 % of control
T/C (dose: 16.0 mg/kg/injection, schedule: Q04DX003 (ip), vehicle: saline with Tween-80): 98 % of control
T/C (dose: 32.0 mg/kg/injection, schedule: Q01DX009 (ip), vehicle: saline with Tween-80): 109 % of control

CC(=O)OCC1OC(n2cnc3c(=S)nc(N)[nH]c32)C(OC(C)=O)C1OC(C)=O (stereo unspecified)
T/C (dose: 3.12 mg/kg/injection, schedule: Q01DX005 (ip), vehicle: saline): 102 % of control and 109 % of control
T/C (dose: 6.25 mg/kg/injection, schedule: Q01DX005 (ip), vehicle: saline): 104 % of control and 105 % of control and 116 % of control
T/C (dose: 12.5 mg/kg/injection, schedule: Q01DX005 (ip), vehicle: saline): 98 % of control and 110 % of control
T/C [2]: 104 % of control

CCC(=O)O[C@H]1CC[C@H]2[C@@H]3CCC4=CC(=O)CC[C@]4(C)[C@H]3CC[C@]12C
T/C [3]: 97 % of control and 100 % of control
T/C [4]: 101 % of control and 87 % of control
T/C [5]: 101 % of control
T/C [6]: 106 % of control
T/C [7]: 102 % of control and 87 % of control
T/C [8]: 95 % of control
T/C [9]: 95 % of control and 86 % of control

C[CH2][Ge]1([CH2]C)[CH2]CC2(CCN(CCCN(C)C)C2)C[CH2]1
T/C (dose: 8.0 mg/kg/injection, schedule: Q01DX005 (ip), vehicle: saline): 94 % of control and 103 % of control
T/C [1]: 96 % of control and 104 % of control and 107 % of control

Nc1nc(SCc2ccccc2F)c2ncn(C3OC(CO)C(O)C3O)c2n1 (stereo unspecified)
T/C (dose: 0.78 mg/kg/injection, schedule: Q01DX005 (ip), vehicle: saline with Tween-80): 101 % of control and 103 % of control
T/C (dose: 1.56 mg/kg/injection, schedule: Q01DX005 (ip), vehicle: saline with Tween-80): 100 % of control and 109 % of control
T/C (dose: 3.12 mg/kg/injection, schedule: Q01DX005 (ip), vehicle: saline with Tween-80): 93 % of control and 96 % of control
T/C (dose: 6.25 mg/kg/injection, schedule: Q01DX005 (ip), vehicle: saline with Tween-80): 91 % of control and 104 % of control and 120 % of control
T/C (dose: 12.5 mg/kg/injection, schedule: Q01DX005 (ip), vehicle: saline with Tween-80): 99 % of control
T/C (dose: 25.0 mg/kg/injection, schedule: Q01DX005 (ip), vehicle: saline with Tween-80): 122 % of control

C[C@]1(O)CC[C@H]2[C@@H]3CCC4=CC(=O)CC[C@]4(C)[C@@]3(F)[C@@H](O)C[C@@]21C
T/C [3]: 91 % of control and 102 % of control
T/C [4]: 96 % of control and 102 % of control
T/C [5]: 93 % of control
T/C [6]: 97 % of control and 98 % of control
T/C [7]: 92 % of control and 104 % of control
T/C [8]: 93 % of control and 97 % of control
T/C [9]: 91 % of control

O=NN(CCF)C(=O)NC1CCC(=O)NC1=O (stereo unspecified)
T/C (dose: 5.18 mg/kg/injection, schedule: Q01DX005 (ip), vehicle: Klucel (hydroxypropylcellulose) (HPC)): 186 % of control
T/C (dose: 8.64 mg/kg/injection, schedule: Q01DX005 (ip), vehicle: Klucel (hydroxypropylcellulose) (HPC)): 232 % of control
T/C (dose: 14.4 mg/kg/injection, schedule: Q01DX005 (ip), vehicle: Klucel (hydroxypropylcellulose) (HPC)): 357 % of control
T/C (dose: 24.0 mg/kg/injection, schedule: Q01DX005 (ip), vehicle: Klucel (hydroxypropylcellulose) (HPC)): 357 % of control
